According to US11981658B2, “Substituted aminopyridine compounds as EGFR inhibitors” (YUHAN CORPORATION, priority 2021, dated 2024):
Structures can show the parent of a compound that is named as a salt. Where two headings read alike, the source gives them in different places.

Legend:
[1] = molecular target: EGFR Del19/T790M/C797S (Homo sapiens, UniProt P00533, C797S/DEL746-750/T790M); assay: Biochemical EGFR kinase inhibition assay (Lance Ultra TR-FRET), triple mutant del19/T790M/C797S
Procedure, shortened: (§1)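 Kinase activity is measured by TR-FRET phosphopeptide detection. Compounds span 0.003 μM to 10 μM; the 1 h reaction at room temperature is quenched with EDTA, then labelled antibody (2 nM) is incubated 60 min before reading.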

[2] = molecular target: EGFR L858R/T790M/C797S (Homo sapiens, UniProt P00533, C797S/L858R/T790M); assay: Biochemical EGFR kinase inhibition assay (Lance Ultra TR-FRET), triple mutant L858R/T790M/C797S
Chain of EGFR L858R/T790M/C797S (P00533 25-1210 T790M/C797S/L858R): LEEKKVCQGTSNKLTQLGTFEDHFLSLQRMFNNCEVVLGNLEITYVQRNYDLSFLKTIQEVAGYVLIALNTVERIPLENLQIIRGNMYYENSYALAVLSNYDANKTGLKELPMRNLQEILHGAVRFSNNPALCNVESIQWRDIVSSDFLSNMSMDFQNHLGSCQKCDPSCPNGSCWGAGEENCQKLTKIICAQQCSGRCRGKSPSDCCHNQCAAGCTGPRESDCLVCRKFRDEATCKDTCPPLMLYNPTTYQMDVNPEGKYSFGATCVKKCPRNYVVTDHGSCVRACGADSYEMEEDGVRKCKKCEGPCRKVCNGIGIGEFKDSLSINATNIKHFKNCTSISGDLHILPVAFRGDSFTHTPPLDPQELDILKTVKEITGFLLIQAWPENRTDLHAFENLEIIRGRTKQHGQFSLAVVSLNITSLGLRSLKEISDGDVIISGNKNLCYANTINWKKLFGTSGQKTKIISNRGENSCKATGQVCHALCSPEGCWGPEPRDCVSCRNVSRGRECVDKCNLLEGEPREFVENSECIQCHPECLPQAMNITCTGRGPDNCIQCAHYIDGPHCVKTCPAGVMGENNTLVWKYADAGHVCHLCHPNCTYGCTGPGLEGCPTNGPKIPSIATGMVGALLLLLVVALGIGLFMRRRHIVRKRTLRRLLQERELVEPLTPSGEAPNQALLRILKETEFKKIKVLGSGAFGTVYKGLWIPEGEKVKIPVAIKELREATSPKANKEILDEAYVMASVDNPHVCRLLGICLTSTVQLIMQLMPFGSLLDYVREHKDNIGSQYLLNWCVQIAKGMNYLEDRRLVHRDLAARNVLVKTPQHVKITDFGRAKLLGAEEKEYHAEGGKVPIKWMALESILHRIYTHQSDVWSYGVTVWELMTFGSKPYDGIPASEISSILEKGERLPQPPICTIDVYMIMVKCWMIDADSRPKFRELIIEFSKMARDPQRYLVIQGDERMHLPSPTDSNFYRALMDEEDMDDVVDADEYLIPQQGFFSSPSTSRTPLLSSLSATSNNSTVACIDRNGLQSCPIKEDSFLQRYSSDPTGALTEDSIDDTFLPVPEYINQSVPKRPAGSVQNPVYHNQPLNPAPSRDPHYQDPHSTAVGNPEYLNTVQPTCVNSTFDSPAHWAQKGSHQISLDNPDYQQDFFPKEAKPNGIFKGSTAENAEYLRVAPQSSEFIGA
Procedure, shortened: as §1

[3] = molecular target: EGFR Del19/C797S (Homo sapiens, UniProt P00533, C797S/DEL746-750); assay: Biochemical EGFR kinase inhibition assay (Lance Ultra TR-FRET), double mutant del19/C797S
Procedure, shortened: as §1

[4] = molecular target: EGFR L858R/C797S (Homo sapiens, UniProt P00533, C797S/L858R); assay: Biochemical EGFR kinase inhibition assay (Lance Ultra TR-FRET), double mutant L858R/C797S
Chain of EGFR L858R/C797S (P00533 25-1210 C797S/L858R): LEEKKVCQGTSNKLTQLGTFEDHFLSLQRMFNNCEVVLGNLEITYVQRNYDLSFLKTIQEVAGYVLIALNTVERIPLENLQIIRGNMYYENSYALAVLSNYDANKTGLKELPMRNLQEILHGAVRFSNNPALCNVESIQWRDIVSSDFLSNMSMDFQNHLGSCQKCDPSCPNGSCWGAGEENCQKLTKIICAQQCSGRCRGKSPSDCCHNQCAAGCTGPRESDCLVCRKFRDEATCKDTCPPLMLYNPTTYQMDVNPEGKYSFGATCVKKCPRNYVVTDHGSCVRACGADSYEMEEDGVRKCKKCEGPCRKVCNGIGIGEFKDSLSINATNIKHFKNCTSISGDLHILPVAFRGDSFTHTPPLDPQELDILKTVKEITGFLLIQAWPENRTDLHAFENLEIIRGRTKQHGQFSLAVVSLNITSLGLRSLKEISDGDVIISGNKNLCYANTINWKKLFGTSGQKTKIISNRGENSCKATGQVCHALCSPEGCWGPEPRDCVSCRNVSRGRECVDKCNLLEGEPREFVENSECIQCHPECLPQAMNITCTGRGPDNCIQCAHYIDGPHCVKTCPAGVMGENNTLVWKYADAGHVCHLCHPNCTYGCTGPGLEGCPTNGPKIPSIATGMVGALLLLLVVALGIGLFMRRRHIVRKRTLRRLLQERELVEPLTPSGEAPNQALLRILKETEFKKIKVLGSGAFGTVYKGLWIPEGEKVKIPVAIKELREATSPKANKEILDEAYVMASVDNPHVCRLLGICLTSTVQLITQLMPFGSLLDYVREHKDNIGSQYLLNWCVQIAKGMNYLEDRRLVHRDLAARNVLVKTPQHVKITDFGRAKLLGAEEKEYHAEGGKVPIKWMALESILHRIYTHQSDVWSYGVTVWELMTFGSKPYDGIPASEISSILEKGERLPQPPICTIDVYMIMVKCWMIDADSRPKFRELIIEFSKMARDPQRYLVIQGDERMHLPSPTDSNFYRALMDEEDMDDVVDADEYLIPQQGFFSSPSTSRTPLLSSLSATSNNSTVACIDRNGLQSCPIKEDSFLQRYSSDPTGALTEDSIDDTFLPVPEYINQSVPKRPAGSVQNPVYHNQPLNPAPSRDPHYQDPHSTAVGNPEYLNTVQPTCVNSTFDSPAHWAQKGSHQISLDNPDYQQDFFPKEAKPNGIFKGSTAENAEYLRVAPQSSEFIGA
Procedure, shortened: as §1

[5] = molecular target: EGFR wildtype (WT) (Homo sapiens, UniProt P00533); assay: Biochemical EGFR kinase inhibition assay (Lance Ultra TR-FRET), wildtype
Chain of EGFR wildtype (WT) (P00533 25-1210): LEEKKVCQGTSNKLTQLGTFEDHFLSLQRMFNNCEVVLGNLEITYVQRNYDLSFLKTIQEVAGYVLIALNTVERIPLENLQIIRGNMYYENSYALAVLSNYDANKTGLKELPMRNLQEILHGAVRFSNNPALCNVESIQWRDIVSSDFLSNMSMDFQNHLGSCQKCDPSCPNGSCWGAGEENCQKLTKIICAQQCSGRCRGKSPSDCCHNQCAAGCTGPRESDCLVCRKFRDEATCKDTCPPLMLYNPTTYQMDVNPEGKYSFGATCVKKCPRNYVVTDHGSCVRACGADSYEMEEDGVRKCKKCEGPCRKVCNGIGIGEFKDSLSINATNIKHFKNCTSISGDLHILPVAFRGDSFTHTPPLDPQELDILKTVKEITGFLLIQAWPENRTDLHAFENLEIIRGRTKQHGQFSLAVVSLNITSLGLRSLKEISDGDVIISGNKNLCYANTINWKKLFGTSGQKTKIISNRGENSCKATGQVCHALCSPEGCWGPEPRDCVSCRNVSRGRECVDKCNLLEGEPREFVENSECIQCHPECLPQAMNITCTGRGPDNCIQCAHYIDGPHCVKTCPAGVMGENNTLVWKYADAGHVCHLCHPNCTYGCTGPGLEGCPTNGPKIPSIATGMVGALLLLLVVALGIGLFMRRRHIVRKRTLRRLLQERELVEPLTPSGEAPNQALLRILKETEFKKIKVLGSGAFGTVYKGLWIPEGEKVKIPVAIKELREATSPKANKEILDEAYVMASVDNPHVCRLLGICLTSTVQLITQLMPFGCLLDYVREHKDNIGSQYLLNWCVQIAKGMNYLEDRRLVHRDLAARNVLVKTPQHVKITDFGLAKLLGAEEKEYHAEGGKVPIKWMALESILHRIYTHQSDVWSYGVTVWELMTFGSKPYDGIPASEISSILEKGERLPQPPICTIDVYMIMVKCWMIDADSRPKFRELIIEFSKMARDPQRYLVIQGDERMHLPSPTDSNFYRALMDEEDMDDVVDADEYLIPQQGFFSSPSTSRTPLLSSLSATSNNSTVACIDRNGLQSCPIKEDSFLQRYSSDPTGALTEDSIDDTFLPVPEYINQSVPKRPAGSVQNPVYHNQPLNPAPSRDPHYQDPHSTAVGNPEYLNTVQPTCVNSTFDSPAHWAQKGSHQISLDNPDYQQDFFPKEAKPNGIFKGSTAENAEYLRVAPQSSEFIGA
Procedure, shortened: as §1

[6] = ATP at Km, read-out: IC50 Del19/T790M/C797S (nM), Km ATP
[7] = IC50 Del19/T790M/C797S (nM), 100 μM ATP
[8] = ATP at Km, read-out: IC50 L858R/T790M/C797S (nM), Km ATP
[9] = IC50 L858R/T790M/C797S (nM), 100 μM ATP
[10] = ATP at Km, read-out: IC50 Del19/C797S (nM), Km ATP
[11] = IC50 Del19/C797S (nM), 100 μM ATP
[12] = ATP at Km, read-out: IC50 L858R/C797S (nM), Km ATP
[13] = IC50 L858R/C797S (nM), 100 μM ATP
[14] = ATP at Km, read-out: IC50 WT (nM), Km ATP
[15] = Km ATP, read-out: IC50 Del19/T790M/C797S (nM), Km ATP
[16] = Km ATP, read-out: IC50 L858R/T790M/C797S (nM), Km ATP
[17] = Km ATP, read-out: IC50 Del19/C797S (nM), Km ATP
[18] = Km ATP, read-out: IC50 L858R/C797S (nM), Km ATP
[19] = Km ATP, read-out: IC50 WT (nM), Km ATP
[20] = Km ATP, read-out: IC50 Del19/T790M/C797S (nM) Km ATP
[21] = Km ATP, read-out: IC50 L858R/T790M/C797S (nM) Km ATP
[22] = Km ATP, read-out: IC50 Del19/C797S (nM) Km ATP
[23] = Km ATP, read-out: IC50 L858R/C797S (nM) Km ATP
[24] = Km ATP, read-out: IC50 WT (nM) Km ATP

Chain of EGFR Del19/T790M/C797S (P00533 with tags, fused parts or gaps DEL746-750/T790M/C797S): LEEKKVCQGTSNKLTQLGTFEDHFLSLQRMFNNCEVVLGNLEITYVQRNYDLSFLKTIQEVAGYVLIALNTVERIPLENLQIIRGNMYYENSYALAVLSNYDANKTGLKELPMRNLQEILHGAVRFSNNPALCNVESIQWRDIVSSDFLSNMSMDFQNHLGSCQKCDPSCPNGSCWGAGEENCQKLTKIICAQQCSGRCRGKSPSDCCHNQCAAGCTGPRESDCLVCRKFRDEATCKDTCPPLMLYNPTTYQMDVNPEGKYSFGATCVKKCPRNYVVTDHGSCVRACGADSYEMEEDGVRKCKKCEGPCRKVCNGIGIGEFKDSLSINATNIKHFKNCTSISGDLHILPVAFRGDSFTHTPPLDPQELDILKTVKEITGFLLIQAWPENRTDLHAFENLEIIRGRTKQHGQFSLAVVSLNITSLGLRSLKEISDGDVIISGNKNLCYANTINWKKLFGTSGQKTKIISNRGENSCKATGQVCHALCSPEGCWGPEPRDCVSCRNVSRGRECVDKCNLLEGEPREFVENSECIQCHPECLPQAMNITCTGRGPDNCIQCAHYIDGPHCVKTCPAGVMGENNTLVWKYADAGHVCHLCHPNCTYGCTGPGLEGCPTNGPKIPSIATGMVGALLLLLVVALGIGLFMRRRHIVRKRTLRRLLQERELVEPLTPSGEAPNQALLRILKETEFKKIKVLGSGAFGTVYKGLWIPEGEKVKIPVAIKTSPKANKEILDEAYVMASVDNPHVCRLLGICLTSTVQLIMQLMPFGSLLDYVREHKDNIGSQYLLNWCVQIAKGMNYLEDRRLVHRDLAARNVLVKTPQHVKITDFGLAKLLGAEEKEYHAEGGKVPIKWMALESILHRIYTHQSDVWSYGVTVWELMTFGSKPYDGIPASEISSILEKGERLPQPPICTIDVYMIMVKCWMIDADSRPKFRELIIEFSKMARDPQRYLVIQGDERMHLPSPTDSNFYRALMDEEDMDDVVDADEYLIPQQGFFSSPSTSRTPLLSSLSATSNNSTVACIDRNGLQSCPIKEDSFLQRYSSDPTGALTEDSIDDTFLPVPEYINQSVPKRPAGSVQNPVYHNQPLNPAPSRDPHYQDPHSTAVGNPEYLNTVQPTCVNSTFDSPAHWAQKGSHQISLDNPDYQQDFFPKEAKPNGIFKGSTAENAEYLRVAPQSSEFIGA

Compound | IC50 [1, 6] | IC50 [1, 7] | IC50 [2, 8] | IC50 [2, 9] | IC50 [3, 10] | IC50 [3, 11] | IC50 [4, 12] | IC50 [4, 13] | IC50 [5, 14] | IC50 ([5]; IC50 WT (nM), 100 μM ATP) | IC50 [1, 15] | IC50 [2, 16] | IC50 [3, 17] | IC50 [4, 18] | IC50 [5, 19] | IC50 [1, 20] | IC50 [2, 21] | IC50 [3, 22] | IC50 [4, 23] | IC50 [5, 24]
CN1CCC2(CCN(c3cc(Nc4ccnc(-c5cnn(S(=O)(=O)C6CC6)c5)n4)ncc3C#Cc3cnn(C)c3)CC2)C1 [Example 297, 2-(1-(Cyclopropylsulfonyl)-1H-pyrazol-4-yl)-N-(5-((1-methyl-1H-pyrazol-4-yl)ethynyl)-4-(2-methyl-2,8-diazaspiro[4.5]decan-8-yl)pyridin-2-yl)pyrimidin-4-amine formate] | 0.1 nM | 0.1 nM | 0.1 nM | 0.2 nM | 1.2 nM | 3.2 nM | 1 nM | 38.1 nM | 4.1 nM | 4180 nM | – | – | – | – | – | – | – | – | – | –
CN1CCC2(CC1)CCN(c1cc(Nc3ccnc(-c4cnn(S(=O)(=O)C5CC5)c4)n3)ncc1C#Cc1cnn(C3CC3)c1)CC2 [Example 319, N-(5-((1-Cyclopropyl-1H-pyrazol-4-yl)ethynyl)-4-(9-methyl-3,9-diazaspiro[5.5]undecan-3-yl)pyridin-2-yl)-2-(1-(cyclopropylsulfonyl)-1H-pyrazol-4-yl)pyrimidin-4-amine] | – | 0.3 nM | – | 0.3 nM | – | 3.2 nM | – | 17.1 nM | – | 4540 nM | – | – | – | – | – | – | – | – | – | –
Cn1cc(C#Cc2cnc(Nc3ccnc(-c4cnn(S(=O)(=O)C5CC5)c4)n3)cc2N2CCCC(C(F)(F)F)C2)cn1 (stereo not shown) [Example 71, 2-(1-(Cyclopropylsulfonyl)-1H-pyrazol-4-yl)-N-(5-((1-methyl-1H-pyrazol-4-yl)ethynyl)-4-(3-(trifluoromethyl)piperidin-1-yl)pyridin-2-yl)pyrimidin-4-amine] | – | 15.7 nM | – | 52.6 nM | – | 127 nM | – | 751 nM | – | > 10000 nM | – | – | – | – | – | – | – | – | – | –
O=S(=O)(C1CC1)n1cc(-c2nccc(Nc3cc(N[C@H]4CC[C@@H](O)CC4)c(C#Cc4ccsc4)cn3)n2)cn1 [Example 217, (1s,4s)-4-((2-((2-(1-(Cyclopropylsulfonyl)-1H-pyrazol-4-yl)pyrimidin-4-yl)amino)-5-(thiophen-3-ylethynyl)pyridin-4-yl)amino)cyclohexan-1-ol] | – | 2.6 nM | – | 14.5 nM | – | 28.3 nM | – | 238 nM | – | > 10000 nM | – | – | – | – | – | – | – | – | – | –
CC1(CO)CCN(c2cc(Nc3ccnc(-c4cnn(S(=O)(=O)C5CC5)c4)n3)ncc2C#CC2(O)COC2)CC1 [Example 354, 3-((6-((2-(1-(Cyclopropylsulfonyl)-1H-pyrazol-4-yl)pyrimidin-4-yl)amino)-4-(4-(hydroxymethyl)-4-methylpiperidin-1-yl)pyridin-3-yl)ethynyl)oxetan-3-ol] | – | 0.2 nM | – | 0.2 nM | – | 0.5 nM | – | 8.6 nM | – | 1630 nM | 0.2 nM | 0.1 nM | 0.3 nM | 0.8 nM | 5.1 nM | – | – | – | – | –
O=S(=O)(C1CC1)n1cc(-c2nccc(Nc3cc(N[C@H]4CC[C@@H](O)CC4)c(C#Cc4cnn(CCF)c4)cn3)n2)cn1 [Example 42, (1s,4s)-4-((2-((2-(1-(Cyclopropylsulfonyl)-1H-pyrazol-4-yl)pyrimidin-4-yl)amino)-5-((1-(2-fluoroethyl)-1H-pyrazol-4-yl)ethynyl)pyridin-4-yl)amino)cyclohexan-1-ol] | – | 1.1 nM | – | 1.2 nM | – | 3.2 nM | – | 11.5 nM | – | > 10000 nM | – | – | – | – | – | – | – | – | – | –
CN(C)CCCn1cc(C#Cc2cnc(Nc3ccnc(-c4cnn(S(=O)(=O)C5CC5)c4)n3)cc2N2CCC(C)(CO)CC2)cn1 [Example 120, (1-(2-((2-(1-(Cyclopropylsulfonyl)-1H-pyrazol-4-yl)pyrimidin-4-yl)amino)-5-((1-(3-(dimethylamino)propyl)-1H-pyrazol-4-yl)ethynyl)pyridin-4-yl)-4-methylpiperidin-4-yl)methanol] | – | 0.7 nM | – | 0.5 nM | – | 0.8 nM | – | 1.3 nM | – | 212 nM | – | – | – | – | – | 0.7 nM | 0.3 nM | 0.5 nM | 0.3 nM | 1.6 nM
CN(C)CCNC1CCN(c2cc(Nc3ccnc(-c4cnn(S(=O)(=O)C5CC5)c4)n3)ncc2C#Cc2cnn(C3CCOCC3)c2)CC1 [Example 138, N^1-(1-(2-((2-(1-(Cyclopropylsulfonyl)-1H-pyrazol-4-yl)pyrimidin-4-yl)amino)-5-((1-(tetrahydro-2H-pyran-4-yl)-1H-pyrazol-4-yl)ethynyl)pyridin-4-yl)piperidin-4-yl)-N^2,N^2-dimethylethane-1,2-diamine] | – | 0.3 nM | – | 0.4 nM | – | 1.3 nM | – | 8.7 nM | – | 2940 nM | – | – | – | – | – | 0.3 nM | 0.1 nM | 1 nM | 0.9 nM | 7.8 nM
O=S(=O)(C1CC1)n1cc(-c2nccc(Nc3cc(N4CCC(CO)C4)c(C#Cc4cnn(CCF)c4)cn3)n2)cn1 (stereo not shown) [Example 34, (1-(2-((2-(1-(Cyclopropylsulfonyl)-1H-pyrazol-4-yl)pyrimidin-4-yl)amino)-5-((1-(2-fluoroethyl)-1H-pyrazol-4-yl)ethynyl)pyridin-4-yl)pyrrolidin-3-yl)methanol] | – | 1.8 nM | – | 6.8 nM | – | 11.5 nM | – | 236 nM | – | > 10000 nM | – | – | – | – | – | 2.1 nM | – | – | – | 27.9 nM
CNCCC1CCN(c2cc(Nc3ccnc(-c4cnn(S(=O)(=O)C5CC5)c4)n3)ncc2C#Cc2cnn(C)c2)CC1 [Example 153, 2-(1-(Cyclopropylsulfonyl)-1H-pyrazol-4-yl)-N-(5-((1-methyl-1H-pyrazol-4-yl)ethynyl)-4-(4-(2-(methylamino)ethyl)piperidin-1-yl)pyridin-2-yl)pyrimidin-4-amine] | 0.1 nM | 0.1 nM | 0.04 nM | 0.1 nM | 0.3 nM | 0.3 nM | 1.8 nM | 5.1 nM | 1.9 nM | 822 nM | – | – | – | – | – | – | – | – | – | –
CC1(O)CC2(CCN(c3cc(Nc4ccnc(-c5cnn(S(=O)(=O)C6CC6)c5)n4)ncc3C#Cc3cnn(CC(F)(F)F)c3)CC2)C1 [Example 347, 7-(2-((2-(1-(Cyclopropylsulfonyl)-1H-pyrazol-4-yl)pyrimidin-4-yl)amino)-5-((1-(2,2,2-trifluoroethyl)-1H-pyrazol-4-yl)ethynyl)pyridin-4-yl)-2-methyl-7-azaspiro[3.5]nonan-2-ol] | – | 6 nM | – | 1.7 nM | – | 8.4 nM | – | 11.7 nM | – | 7140 nM | 5.4 nM | 3.2 nM | 9.2 nM | 5.9 nM | 74.3 nM | – | – | – | – | –
O=S(=O)(C1CC1)n1cc(-c2nccc(Nc3cc(N[C@H]4CC[C@@H](O)CC4)c(C#CC4CCOCC4)cn3)n2)cn1 [Example 178, (1s,4s)-4-((2-((2-(1-(Cyclopropylsulfonyl)-1H-pyrazol-4-yl)pyrimidin-4-yl)amino)-5-((tetrahydro-2H-pyran-4-yl)ethynyl)pyridin-4-yl)amino)cyclohexan-1-ol] | 0.3 nM | 0.3 nM | 0.2 nM | 0.3 nM | 1.1 nM | 2.3 nM | 3 nM | 27 nM | 9.5 nM | 8010 nM | – | – | – | – | – | – | – | – | – | –
